The term viability denotes a read-out of living cells in per cent, often relative to untreated cells. Low readings indicate more harm to the cells, high ones less harm to the cells.

Test [1] concerns H22 mouse liver cancer cells. Kind of test: Anti-tumor efficacy in vivo (transplanted solid tumor, tumor weight). The note with it: H22 subcutaneous tumor in mice, tail vein injection on days 2 and 7 post-inoculation, tumors weighed after 2 weeks of administration. The procedure:
The transplantation of animal tumors was adopted as the experimental method, with 6 mice per group, and H22 mouse liver cancer cells were inoculated subcutaneously into the right axilla of the mice to form solid tumors. Single-dose administrations via tail vein injection were performed on days 2 and 7 post-inoculation, respectively. After 2 weeks of administration, the mice were sacrificed via cervical dislocation, and the tumors were excised and weighed. Tumor Inhibition Rate = [G-H/G]*100% (G represents the average tumor weight of the blank control group, H represents the average tumor weight of the treatment group). Table 4. Results of Anti-tumor Effect

Test [2] relates to human ovarian cancer cell A2780. The test can be described thus: Cytotoxicity assay, MTT staining. The format is cell-based. The following applies: A2780, 10 nM, 48 h. As for the experimental part:
(§1) Cytotoxicity assay of PEGylated irinotecan E10-1 (wherein the polyethylene glycol component is derived from E4-1) was performed using MTT staining. A blank control group containing no drugs but only culture medium, a positive control group containing irinotecan, and an experimental group containing PEGylated irinotecan (E10-1) were respectively set up. The drug concentration of the positive control group and experimental group was 10 nM, with 6 replicate wells each, and the assay was repeated three times. Six types of cancer cells were selected as in vitro cancer cell models: human colon cancer cell COLO205, human colon adenocarcinoma cell HT29, human lung adenocarcinoma cell A549, pancreatic cancer cell MiaPaCa-2, human ovarian cancer cell A2780, and human ovarian adenocarcinoma cell OVCAR-3.
(§2) Cells were inoculated onto a 96-well plate at a density of 1×10^4 cells/well, with 100 µL of cell suspension added to each well. After the inoculation, the cells were incubated in a cell culture incubator at 37°C, 4% CO2 for 24 h. The old culture medium was aspirated, and then 100 µL of culture medium containing 10 nM E10-1 was added to each experimental group, 100 µL of culture medium containing 10 nM irinotecan was added to each positive control group, and 100 µL of fresh culture medium was added to the blank control group. After further incubation for 48 h, 20 µL of 5 mg/mL MTT in PBS buffer was added to each well. After incubating the cancer cells with MTT for 4 h, the mixture of culture medium and MTT buffer was aspirated, and then DMSO (150 µL/well) was added to dissolve the blue-purple crystalline product of formazan in viable cells. The 96-well plate was gently shaken until the crystalline product was fully dissolved, and then a microplate reader was used to measure the absorbance at 490 nm. [formula]

Test [3] concerns human ovarian adenocarcinoma cell OVCAR-3. Kind of test: Cytotoxicity assay, MTT staining. The following applies: OVCAR-3, 10 nM, 48 h. The format is cell-based. The procedure:
as §1, §2

Test [4] has as its system pancreatic cancer cell MiaPaCa-2. Kind of test: Cytotoxicity assay, MTT staining. The format is cell-based. The following applies: Homo sapiens, MIA PaCa-2, MiaPaCa-2, 10 nM, 48 h. As for the experimental part: as §1, §2
Test [5] deals with human lung adenocarcinoma cell A549. Kind of test: Cytotoxicity assay, MTT staining. It counts as cell-based. The note with it: A549, 10 nM, 48 h. As for the experimental part:
as §1, §2

The subject of test [6] is human colon cancer cell COLO205. The test can be described thus: Cytotoxicity assay, MTT staining. It counts as cell-based. The following applies: COLO 205, COLO205, 10 nM, 48 h. As for the experimental part:
as §1, §2

In test [7] the test system is human colon adenocarcinoma cell HT29. The test can be described thus: Cytotoxicity assay, MTT staining. It counts as cell-based. The note with it: HT-29, HT29, 10 nM, 48 h. As for the experimental part: as §1, §2

In the case of `CCc1c2c(nc3ccc(OC(=O)N4CCC(N5CCCCC5)CC4)cc13)-c1cc3c(c(=O)n1C2)COC(=O)[C@]3(O)CC` [irinotecan], in test [1], the “Tumor Inhibition Rate” value worked out at 30.3%. Besides, the viability at 0.01 µM came to 73% in test [2]; 75% in test [3]; 76% in test [4]; 70% in test [5]; 76% in test [6]; 74% in test [7].

These data come from patent EP4563620A1, “THREE-ARM POLYETHYLENE GLYCOL DERIVATIVE CONTAINING AMINO ACID RESIDUES” (Xiamen Sinopeg Biotech Co., Ltd., priority 2022, dated 2024).
